{"source": "patent US6730665B1", "about": "“Treatment of bone cancer” (Mayo Foundation for Medical Education and Research, priority 1999, dated 2004)", "key": {"female Fisher 344 rats": {"tested_on": "female Fisher 344 rats", "assay": "Growth plate histomorphometry and longitudinal bone growth rate in rats", "type": "in vivo, rat", "conditions": "100 mg/kg/day oral gavage 13 days", "procedure": "All studies were approved by the Institutional Animal Care and Use Committee of the Mayo Clinic, Rochester, Minn. Rats were kept in plastic cages (3 per cage) under standard conditions of a 12 hr dark and 12 hr light cycle with food (Purina Laboratory rodent diet 5001, Ralston-Purina, St. Louis, Mo.) and water ad libitum. Rooms were maintained at a temperature of 24° C.\nTwenty-five female 3-month-old Fisher 344 rats, weighing approximately 141-160 g, were purchased from Harlan Sprague Dawley (Madison, Wis.). The rats were divided into 3 groups (8 or 9 rats/group) of a baseline group that was sacrificed on the first day of treatment, a control group that was treated with carrier (liposomes) only, and a 2ME treatment group. […] Fluorochromes were given juxta tail vein. Declomycin (20 mg/kg) was given on the first day of treatment and calcein (15 mg/kg) two days prior to sacrifice, in order to label mineralizing bone and cartilage. Twenty-four hours after the last dosage, rats were anesthetized with ketamine HCl (100 mg/kg):xylaxine HCl (10 mg/kg) and sacrificed by decapitation. […] Tibiae were quickly excised and fixed for histomorphometry in a solution of 70% ethanol.\nBone histomorphometry Histomorphometric measurements were performed with the OsteoMeasure Analysis System (OsteoMetrics, Atlanta, Ga.), which consisted of a Pentium 1133 computer coupled to a photomicroscope and image analysis system. […] The region of interest was traced, and the line lengths and area bounded by lines were calculated automatically.\nGrowth Plate Measurements The longitudinal bone growth rate was measured at 5 equally spaced sites across the growth plate as the distance between the declomycin and calcein labels that had been deposited into the mineralizing front of the hypertrophic zone of the growth plate divided by the 11 day interval between application of the sequential fluorochromes.\nGrowth plate thickness was measured as the mean distance between the zone of vascular invasion and the resting zone. Thicknesses of the proliferative zone and hypertrophic zone were also measured.\nStatistical Analvses All values are expressed as mean±standard error (SE). Significant differences between groups were determined by Fisher's Protected Least Significant Difference post hoc test for multiple group comparisons following detection of significance by 1-way ANOVA. Significance was considered at p values ≦0.05."}, "[1]": {"assay": "Serum cholesterol in 2ME treated rats", "type": "in vivo, rat", "conditions": "100 mg/kg/day oral gavage 13 days"}, "[2]": {"tested_on": "MG63 human osteosarcoma cells", "assay": "Cell survival, viable cell count with trypan blue", "type": "cell-based", "conditions": "for cell death: 72 hrs", "experimental": "(§1) MG63 and TE85 human osteosarcoma cells, and ROS 17/2.8 rat osteosarcoma cells were grown in DMEM/F12 phenol-red free medium containing 10% charcoal-stripped fetal bovine serum (FBS) and supplemented with 100 units/ml penicillin, 100 μg/ml streptomycin. Cell were incubated at 37° C. under 5% CO2 in air. Cells were plated at 5×10^4 cells per well into 24 well plates containing 1 ml of medium per well. After allowing the cells to attach overnight, media in the wells were replaced with fresh 1 ml medium. Human fetal osteoblasts (hFOB) cells and hFOB cells overexpressing estrogen receptor-alpha (hFOB-ERα) and estrogen receptor-beta (hFOB-ERβ) were grown in DMEM/F12 medium containing FBS, penicillin, streptomycin and Geneticin (300 μg/mL). The laboratory of Dr. B. L. Riggs at Mayo Clinic provided primary human osteoblast (HOB) cells. HOB cells were basically established from cancellous bone obtained as waste from orthopedic procedures and cultured as explants to generate the osteoblast-like monolayers as described by Borke et al., J. Clin. Endocrinol. Metab., 1988, 67:1299-1304. Human FOB cells and hFOB cells stably transfected with estrogen receptors (ERs) were maintained at 34° C., while all other cells were incubated at 37° C. under 5% CO2 in air.\n(§2) Estrogen metabolites were diluted 1000 fold to give the final required concentrations in each well, and maintained for 72 hrs. The metabolites 2ME, 2OHE, and E2 were purchased from Sigma Chemical Company (St. Louis, Mo.). Stock solutions for each metabolite were made in 95% ethanol. Cell growth was measured by taking the viable cell count. At the end of metabolite treatment, cells were harvested, stained with trypan blue, and counted under a light microscope.\nMG63 cells were treated with 0, 2, and 10 μM concentrations of 2ME in the presence or absence of 100 nM ICI for 72 hours. The cells were harvested and the viable cell counts were taken after staining with trypan blue."}, "[3]": {"tested_on": "Human fetal osteoblasts (hFOB) cells", "assay": "Cell survival, viable cell count with trypan blue", "type": "cell-based", "conditions": "2 μM, 72 h", "experimental": "as §1, §2"}, "[4]": {"tested_on": "ROS 17/2.8 rat osteosarcoma cells", "assay": "Cell survival, viable cell count with trypan blue", "type": "cell-based", "conditions": "2 μM, 72 h", "experimental": "as §1, §2"}, "[5]": {"tested_on": "TE85 human osteosarcoma cells", "assay": "Cell survival, viable cell count with trypan blue", "type": "cell-based", "conditions": "2 μM, 72 h", "experimental": "as §1, §2"}, "[6]": {"tested_on": "primary human osteoblast (HOB) cells", "assay": "Cell survival, viable cell count with trypan blue", "type": "cell-based", "experimental": "as §1, §2"}, "MG63 osteosarcoma cells": {"tested_on": "MG63 osteosarcoma cells", "assay": "In situ apoptosis by TUNEL assay", "type": "cell-based, human", "conditions": "10 μM, 48 h", "experimental": "The effect of 2ME on in situ apoptosis was examined at the single cell level, based on labeling of DNA strand breaks using the TUNEL (terminal deoxynucleotidyl transferase-mediated dUTP nick end labeling) assay per manufacturer's protocol (Boehringer Mannheim, Indianapolis, Ind.). In this method, the ends of broken DNA strands were labeled with fluorescein-dUTP, and apoptotic cells in adherent cultures were detected by fluorescence microscopy. In brief, TUNEL assay was performed on coverslips of adherent cells contained in individual wells of a 24-well culture dish. Cells were washed once with phosphate buffered saline (PBS) and allowed to air dry before being fixed in 4% phosphate-buffered paraformaldehyde pH 7.4 (Sigma, St. Louis, Mo.) for 1 h at room temperature. Following a PBS rinse, endogenous peroxidase was blocked by incubating cells for 1 h at room temperature with 0.3% hydrogen peroxide in methanol (Sigmna). The latter was performed for the option of converting fluorescein-labeled cells to peroxidase-labeled cells and DAB chromogenic detection. Subsequent to a PBS rinse, cells were permeabilized on ice with incubation in 0.1% Triton X-100 in 0.1% sodium citrate for 2 min. Coverslips were rinsed twice in PBS before the addition of TUNEL reaction mixture (100 μl). […] Coverslips were rinsed 3 times with PBS before visualization by fluorescence microscopy. […]"}, "estrogen receptors": {"tested_on": "estrogen receptors", "conditions": "cited from earlier work"}}, "note": "Entries after “also recorded” stand apart in the source; their conditions may differ.", "data": [{"molecule": "COc1cc2c(cc1O)CC[C@@H]1[C@@H]2CC[C@]2(C)[C@@H](O)CC[C@@H]12", "note": "[2ME, 2-methoxyestradiol]", "values": [{"measurement": "Proliferative zone thickness", "setting": "female Fisher 344 rats; mean ± SE, control 42 ± 5", "value": "11 ± 3", "unit": "μm"}, {"measurement": "Hypertrophic zone thickness", "setting": "female Fisher 344 rats; mean ± SE, control 46 ± 6", "value": "6 ± 2", "unit": "μm"}, {"measurement": "Growth plate thickness", "setting": "female Fisher 344 rats; mean ± SE, control 153 ± 14", "value": "70±6", "unit": "μm"}, {"measurement": "effect on longitudinal bone growth (in words)", "setting": "female Fisher 344 rats; proximal tibia, 100 mg/kg/day", "value": "decreased; also recorded: highly significant decreases"}, {"measurement": "longitudinal bone growth rate", "setting": "female Fisher 344 rats; proximal tibia, control 55±2", "value": "20±2", "unit": "μm/day"}, {"measurement": "effect on serum cholesterol (in words)", "setting": "[1]", "value": "decreased; also recorded: highly significant decreases"}, {"measurement": "cell survival rate", "setting": "[2]; 2 μM, 72 h", "value": 21, "unit": "%"}, {"measurement": "reduction of MG63 cell survival", "setting": "[2]; 2 μM, 72 hours", "value": "approximately 80%"}, {"measurement": "cell death", "setting": "[2]; 20 μM", "value": "about 95%"}, {"measurement": "cell death", "setting": "[2]; 50 μM", "value": "~100", "unit": "%"}, {"measurement": "cell numbers reduced to", "setting": "[3]", "value": 15, "unit": "%"}, {"measurement": "cell numbers reduced to", "setting": "[4]", "value": 19, "unit": "%"}, {"measurement": "cell survival rate", "setting": "[5]", "value": 9, "unit": "%"}, {"measurement": "growth of normal osteoblasts (in words)", "setting": "[6]", "value": "not affected"}, {"measurement": "survival", "setting": "[6]; 2 μM, 72 h", "value": 89, "unit": "%"}, {"measurement": "TUNEL staining", "setting": "MG63 osteosarcoma cells", "value": "Positive staining"}, {"measurement": "affinity for estrogen receptors (in words)", "setting": "estrogen receptors", "value": "negligible affinity"}]}]}
